# Experimental data: US8329693B2, “Method for the prevention of thromboembolic disorders” (Orion Corporation, priority 2004, dated 2012)
# “Also recorded” adds a separate entry of the source.
# Legend:
# [1] = tested on: Dahl SS rats on high-salt diet; assay: Ex vivo MRI of post-mortem brain, Dahl salt-sensitive rat stroke model; assay type: in vivo
# Description: (§1) Dahl SS rats were divided into three treatment groups: High-Salt diet+vehicle (n=20), High-Salt diet+Levosimendan 1 mg/kg/day (n=20), and Normal-Salt diet control (n=4). High salt diet contained 7% of NaCl in commercial low salt diet. Feeding with the high-salt diet was started at the age of 6 weeks and continued 7 weeks until the end of the study. Levosimendan was administered via drinking water (2 mg/l of levosimendan in drinking water). The administration was started at the same time as the high-salt diet and continued until the end of the study. The consumption of drinking water and food as well as the body weight and general health of the animals were monitored. MRI was performed once-a-week during the weeks 2-8. FOB and 7-point Neuroscore testing were performed once-a-week during the weeks 1-3 and twice-a-week during weeks the 4-8.
# For ex-vivo imaging post-mortem brain was removed from the skull and immersed into 4% formalin for 48 h and thereafter stored in 0.1 M PBS. The brain was embedded in perfluoropolyether and MRI was performed in 9.4 T magnet (Oxford) interfaced to a SMIS-console. The interpretation of hyperintensity and signal void areas follows that presented for in vivo studies. In ex vivo studies only mature lesions with significant oedema and destructed tissue structure can be detected. Initial T2 contrast, which may be detectable in vivo, may not be visible in ex vivo studies. The findings in ex vivo studies support the idea that most of the ischemic lesions were associated with hemorrhage. […] Abbreviations: LS, levosimendan.
# [2] = tested on: Dahl salt-sensitive rats on high salt diet; assay: Effects on mortality in salt sensitive rat model (Experiment 1); assay type: in vivo
# Description: Effect of levosimendan on early stage mortality of Dahl salt-sensitive rats was studied. Dahl salt-sensitive rats on high salt diet develop hypertension and increased mortality. In the early stages of hypertension the incidence of death is almost entirely due to stroke and sudden death. See Qu, P. et al., Hypertens. Res., 2000; 23:613-623.
# 6-week-old male Dahl salt-sensitive rats (SS/JrHsd) received the following diet and drug regimens for 7 weeks: 1) Dahl SS controls on high salt diet, 2) Dahl SS rats on high salt diet+high-dose levosimendan (10 mg/l of levosimendan in drinking water), 3) Dahl SS rats on high salt diet+low-dose levosimendan (1 mg/l of levosimendan in drinking water) and 4) Dahl SS controls on low salt diet. High salt diet was produced by adding NaCl to commercial low salt diet.
# Only 38% (9/24) of rats on high salt diet survived the 7-week follow up period.
# [3] = tested on: Dahl SS rats on high-salt diet; assay: In vivo T2-weighted MRI of brain lesions, Dahl salt-sensitive rat stroke model; conditions: for share of animals with T2-lesion volume 0 mm^3 / share of animals with T2-lesion volume 1-50 mm^3 / share of animals with T2-lesion volume 51-100 mm^3 / share of animals with T2-lesion volume >200 mm^3: in vivo MRI
# Description: (§2) Effect of levosimendan on the incidence of cerebral strokes in Dahl salt-sensitive rat stroke model was studied using Magnetic Resonance Imaging (MRI) and behavioural tests (Neuroscore and Functional Observational Battery (FOB)).
# as §1
# Diffusion and T2-weighted MRI using Varian Inova console interfaced to a 4.7 T horizontal magnet (Magnex Scientific Ltd.) was performed once-a-week on halothane-anesthetized rats. T2-weighted imaging and quantitative diffusion imaging were used to determine lesion size and to characterize plausible ischaemic lesions in Dahl SS rats. Typical lesions were heterogeneous and consisted of several different regions with different MRI characteristics. Hyperintensity in T2-weighted imaging was found in practically all animals with detectable abnormalities. This can be interpreted as oedematous tissue, which is typical for ischaemic tissue and is, in general, detectable starting at ˜12-24 h after occlusion of the feeding vessel. […] At the high magnetic field (4.7 T) used in this study, any ferromagnetic substance causes local disruption in magnetic field homogeneity which destroys the signal in T2-weighted imaging. This is a characteristic MRI feature for hemorrhage as haemoglobin in blood contains Fe. Thus almost all lesions detected in this study can be characterized to be associated with hemorrhage.
# [4] = tested on: Dahl SS rats on high-salt diet; assay: Functional observational battery (FOB), Dahl salt-sensitive rat stroke model; assay type: in vivo; conditions: weeks 1-8, levosimendan 1 mg/kg/day
# Description: as §1
# Functional observational battery (FOB) and Neuroscore testing were performed once-a-week during weeks 1-3 and twice-a-week during weeks 4-8.
# All rats were observed using standardized procedures. The procedures included observation of rats in the home cage, while moving in open arena and through manipulative tests. The measures included:
# (1) Home-Cage Measurements:
# Body position, Respiration, Vocalization and Palpebral closure.
# (2) Hand-Held Observations: […]
# [5] = tested on: Dahl SS rats on high-salt diet; assay: Mortality in Dahl salt-sensitive rat stroke model (Experiment 2); assay type: in vivo; conditions: High-Salt diet + Levosimendan 1 mg/kg/day (2 mg/l in drinking water), 7 weeks, n=20; vehicle group 70%
# Description: as §2, §1
# salt sensitive rat model = assay: Stroke in salt sensitive rat model (summary statements); assay type: in vivo; conditions: preventative treatment
compound,measurement,setting,value
"CC1CC(=O)NN=C1c1ccc(NN=C(C#N)C#N)cc1 (single isomer, unassigned; (-)) [levosimendan, (−)-enantiomer of [[4-(1,4,5,6-tetrahydro-4-methyl-6-oxo-3-pyridazinyl)phenyl]hydrazono]propanedinitrile]","Incidence of T2 changes, class 0","[1]; class 0, levosimendan 1 mg/kg/day",80%
same,"Incidence of T2 changes, class 1-50","[1]; class 1-50, levosimendan 1 mg/kg/day",20%
same,"Incidence of T2 changes, class 51-100","[1]; class 51-100, levosimendan 1 mg/kg/day",0%
same,"Incidence of T2 changes, class >200","[1]; class >200, levosimendan 1 mg/kg/day",0%
same,early stage mortality of salt-sensitive rats,"[2]; 7 weeks, levosimendan in drinking water",markedly reduced
same,rats that died during the 7-week follow up period,"[2]; high-dose levosimendan, 10 mg/l in drinking water",three out of 12
same,rats that died during the 7-week follow up period,"[2]; low-dose levosimendan, 1 mg/l in drinking water, n=12",None
same,noticeable T2-weighted MRI changes,"[3]; 6th week of the study, more than 50% of vehicle treated animals had changes",no changes were observed
same,animals with detectable T2-weighted MRI changes,"[3]; at the last MRI measurement, 85% of vehicle treated animals",10%
same,share of animals with T2-lesion volume 0 mm^3,"[3]; week 2, lesion volume class 0 mm^3, levosimendan 1 mg/kg/day in drinking water",95%
same,share of animals with T2-lesion volume 1-50 mm^3,"[3]; week 2, lesion volume class 1-50 mm^3, levosimendan 1 mg/kg/day in drinking water",5%
same,share of animals with T2-lesion volume 51-100 mm^3,"[3]; week 2, lesion volume class 51-100 mm^3, levosimendan 1 mg/kg/day in drinking water",0%
same,share of animals with T2-lesion volume >200 mm^3,"[3]; week 2, lesion volume class >200 mm^3, levosimendan 1 mg/kg/day in drinking water",0%
same,share of animals with T2-lesion volume 0 mm^3,"[3]; week 3, lesion volume class 0 mm^3, levosimendan 1 mg/kg/day in drinking water",100%
same,share of animals with T2-lesion volume 1-50 mm^3,"[3]; week 3, lesion volume class 1-50 mm^3, levosimendan 1 mg/kg/day in drinking water",0%
same,share of animals with T2-lesion volume 51-100 mm^3,"[3]; week 3, lesion volume class 51-100 mm^3, levosimendan 1 mg/kg/day in drinking water",0%
same,share of animals with T2-lesion volume >200 mm^3,"[3]; week 3, lesion volume class >200 mm^3, levosimendan 1 mg/kg/day in drinking water",0%
same,share of animals with T2-lesion volume 0 mm^3,"[3]; week 4, lesion volume class 0 mm^3, levosimendan 1 mg/kg/day in drinking water",95%
same,share of animals with T2-lesion volume 1-50 mm^3,"[3]; week 4, lesion volume class 1-50 mm^3, levosimendan 1 mg/kg/day in drinking water",5%
same,share of animals with T2-lesion volume 51-100 mm^3,"[3]; week 4, lesion volume class 51-100 mm^3, levosimendan 1 mg/kg/day in drinking water",0%
same,share of animals with T2-lesion volume >200 mm^3,"[3]; week 4, lesion volume class >200 mm^3, levosimendan 1 mg/kg/day in drinking water",0%
same,share of animals with T2-lesion volume 0 mm^3,"[3]; week 5, lesion volume class 0 mm^3, levosimendan 1 mg/kg/day in drinking water",100%
same,share of animals with T2-lesion volume 1-50 mm^3,"[3]; week 5, lesion volume class 1-50 mm^3, levosimendan 1 mg/kg/day in drinking water",0%
same,share of animals with T2-lesion volume 51-100 mm^3,"[3]; week 5, lesion volume class 51-100 mm^3, levosimendan 1 mg/kg/day in drinking water",0%
same,share of animals with T2-lesion volume >200 mm^3,"[3]; week 5, lesion volume class >200 mm^3, levosimendan 1 mg/kg/day in drinking water",0%
same,share of animals with T2-lesion volume 0 mm^3,"[3]; week 6, lesion volume class 0 mm^3, levosimendan 1 mg/kg/day in drinking water",100%
same,share of animals with T2-lesion volume 1-50 mm^3,"[3]; week 6, lesion volume class 1-50 mm^3, levosimendan 1 mg/kg/day in drinking water",0%
same,share of animals with T2-lesion volume 51-100 mm^3,"[3]; week 6, lesion volume class 51-100 mm^3, levosimendan 1 mg/kg/day in drinking water",0%
same,share of animals with T2-lesion volume >200 mm^3,"[3]; week 6, lesion volume class >200 mm^3, levosimendan 1 mg/kg/day in drinking water",0%
same,share of animals with T2-lesion volume 0 mm^3,"[3]; week 7, lesion volume class 0 mm^3, levosimendan 1 mg/kg/day in drinking water",90%
same,share of animals with T2-lesion volume 1-50 mm^3,"[3]; week 7, lesion volume class 1-50 mm^3, levosimendan 1 mg/kg/day in drinking water",0%
same,share of animals with T2-lesion volume 51-100 mm^3,"[3]; week 7, lesion volume class 51-100 mm^3, levosimendan 1 mg/kg/day in drinking water",10%
same,share of animals with T2-lesion volume >200 mm^3,"[3]; week 7, lesion volume class >200 mm^3, levosimendan 1 mg/kg/day in drinking water",0%
same,share of animals with T2-lesion volume 0 mm^3,"[3]; week 8, lesion volume class 0 mm^3, levosimendan 1 mg/kg/day in drinking water",89%
same,share of animals with T2-lesion volume 1-50 mm^3,"[3]; week 8, lesion volume class 1-50 mm^3, levosimendan 1 mg/kg/day in drinking water",5%
same,share of animals with T2-lesion volume 51-100 mm^3,"[3]; week 8, lesion volume class 51-100 mm^3, levosimendan 1 mg/kg/day in drinking water",0%
same,share of animals with T2-lesion volume >200 mm^3,"[3]; week 8, lesion volume class >200 mm^3, levosimendan 1 mg/kg/day in drinking water",5%
same,stroke-associated behavioural deficits observed in FOB testing,[4],markedly reduce and postpone
same,mortality during the study,[5],5%
same,"incidence and volume of brain lesions, behavioural disorders and mortality associated with stroke",salt sensitive rat model,reduces and/or postpones; also recorded: markedly reduce
